Our source for the t1/2 and Activity values is ChEMBL document CHEMBL1143967, “Targeted inhibition of hedgehog signaling by cyclopamine prodrugs for advanced prostate cancer” (Bioorg Med Chem, 2008).

The nature of data set [1]: Hydrolysis of prodrug assessed as half life in presence PSA. The format is ADME.
For data set [2], the system named is DU-145. Nature of the data set: Growth inhibition of human DU145 cells at 10 uM after 96 hrs. Format: functional, cell-based.
The subject of data set [3] is DU-145. As to the kind of experiment: Growth inhibition of human DU145 cells at 5 uM after 96 hrs. Format: functional, cell-based.
Data set [4] concerns DU-145. As to the kind of experiment: Increase in growth inhibition of human DU145 cells in presence of PSA after 96 hrs. The format is functional, cell-based.

The source made the active and inactive calls. No cut-off for these calls is given here. *1 amine or outer side, *2 acyl side, *3 side chain or, on linkers, in order; H or OH if unused. Where a SMILES comes first, the peptide text is derived from it. The star is where a group is joined. X1 = CC1=C2C[C@H]3[C@@H](CC=C4C[C@@H](O)CC[C@@]43C)[C@@H]2CC[C@]12O[C@@H]1C[C@H](C)CN(*)[C@H]1[C@H]2C; Morpholide = C1CN(*)CCO1; CO = O=C([*:1])[*:2]

For `CC1=C2C[C@H]3[C@@H](CC=C4C[C@@H](O)CC[C@@]43C)[C@@H]2CC[C@]12O[C@@H]1C[C@H](C)CN(C(=O)[C@H](CCC(N)=O)NC(=O)[C@H](Cc3ccc(O)cc3)NC(=O)[C@H](CCCCN)NC(=O)[C@H](CO)NC(=O)[C@H](CO)NC(=O)N3CCOCC3)[C@H]1[C@H]2C` ({Morpholide-CO}-SSKYQ-X1), the t1/2 in data set [1] turned out to be 3.2 h. For `CC1=C2C[C@H]3[C@@H](CC=C4C[C@@H](O)CC[C@@]43C)[C@@H]2CC[C@]12O[C@@H]1C[C@H](C)CN[C@H]1[C@H]2C`, the outcome in data set [2] and in data set [3] was Active. For `CC1=C2C[C@H]3[C@@H](CC=C4C[C@@H](O)CC[C@@]43C)[C@@H]2CC[C@]12O[C@@H]1C[C@H](C)CN(C(=O)[C@H](CCC(N)=O)NC(=O)[C@H](CC(C)C)NC(=O)[C@H](CCCCN)NC(=O)[C@H](CO)NC(=O)[C@H](CO)NC(=O)[C@H](Cc3c[nH]cn3)NC(=O)N3CCOCC3)[C@H]1[C@H]2C` ({Morpholide-CO}-HSSKLQ-X1), the outcome in data set [4] was Active. Further, in data set [1], the t1/2 was found to be 22 h.
